Read-outs that look alike come from different tables or passages of the source.
What was measured:
Type in all cases: cell-based
TRPML1 = TRPML1 (Homo sapiens, UniProt Q9GZU1); assay: Fluorescent TRPML1 assay (Fluo4-AM calcium fluorescence in doxycycline-induced HEK-293 Trex cells)
Outline: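 hTRPML1 (mutated for cell-surface expression) in HEK-293 Trex, dox 0.5 ug/mL o/n; Fluo4-AM 1 uM ~60 min, then ~60 min de-esterification, dark; modified Ringer's + 10 mM Ca. Cmpds 20 uM–6 nM final, half-log, n=3. Ex480/Em540; % activity vs ctrls; EC50 by nonlinear regression.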

TRPML2 = biological target: T1, TRPML2 (Homo sapiens, UniProt Q8IZK6); assay: Fluorescent TRPML2 assay (performed as for TRPML1, substituting the TRPML2 subtype)
T1 construct: expressed in transfected cells
T1 sequence (Q8IZK6 1-566): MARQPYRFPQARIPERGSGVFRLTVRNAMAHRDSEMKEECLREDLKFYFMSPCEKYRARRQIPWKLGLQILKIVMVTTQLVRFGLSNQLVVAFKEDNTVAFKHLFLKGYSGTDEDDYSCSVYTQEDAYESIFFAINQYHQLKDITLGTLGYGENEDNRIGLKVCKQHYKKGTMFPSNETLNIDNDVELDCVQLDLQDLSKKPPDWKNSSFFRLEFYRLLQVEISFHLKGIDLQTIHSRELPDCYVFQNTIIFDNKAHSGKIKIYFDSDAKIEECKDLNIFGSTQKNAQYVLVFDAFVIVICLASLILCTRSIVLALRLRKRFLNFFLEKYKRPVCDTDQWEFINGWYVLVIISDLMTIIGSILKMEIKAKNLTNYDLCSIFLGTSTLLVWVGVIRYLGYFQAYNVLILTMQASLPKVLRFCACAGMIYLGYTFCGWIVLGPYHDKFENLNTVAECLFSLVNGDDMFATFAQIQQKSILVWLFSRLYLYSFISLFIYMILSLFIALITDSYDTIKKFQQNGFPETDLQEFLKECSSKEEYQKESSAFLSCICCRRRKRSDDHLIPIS
Outline: (§1)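 Compound series (final 6 nM-20 μM, half-log, triplicate) were added to Fluo4-AM-loaded HEK-293 Trex cells in 10 mM calcium Ringer's, expressing the human TRPML subtype after doxycycline 0.5 ug/mL induction. Percent activity versus positive/negative controls from 480/540 nm fluorescence; EC50 by non-linear regression.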

TRPML3 = biological target: T2, TRPML3 (Homo sapiens, UniProt Q8TDD5); assay: Fluorescent TRPML3 assay (performed as for TRPML1, substituting the TRPML3 subtype)
T2 construct: expressed in transfected cells
T2 sequence (Q8TDD5 1-553): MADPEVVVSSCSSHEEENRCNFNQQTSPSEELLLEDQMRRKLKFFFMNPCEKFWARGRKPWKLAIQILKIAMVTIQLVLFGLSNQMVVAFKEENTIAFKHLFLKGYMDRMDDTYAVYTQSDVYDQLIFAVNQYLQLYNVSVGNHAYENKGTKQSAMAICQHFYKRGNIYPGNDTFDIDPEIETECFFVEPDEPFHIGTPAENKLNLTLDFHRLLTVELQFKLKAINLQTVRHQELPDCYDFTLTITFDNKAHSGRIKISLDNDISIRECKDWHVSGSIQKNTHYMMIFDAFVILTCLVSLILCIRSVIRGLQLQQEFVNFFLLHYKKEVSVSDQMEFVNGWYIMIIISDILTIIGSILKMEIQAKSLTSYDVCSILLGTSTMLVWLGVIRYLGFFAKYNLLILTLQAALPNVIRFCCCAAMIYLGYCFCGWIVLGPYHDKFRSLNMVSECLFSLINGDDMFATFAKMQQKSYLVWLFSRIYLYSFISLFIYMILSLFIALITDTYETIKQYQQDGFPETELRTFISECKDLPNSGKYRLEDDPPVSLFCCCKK
Outline: as §1

TRPML1, sequence (Q9GZU1 whole entry L15A/L16A/L577A/L578A, form open): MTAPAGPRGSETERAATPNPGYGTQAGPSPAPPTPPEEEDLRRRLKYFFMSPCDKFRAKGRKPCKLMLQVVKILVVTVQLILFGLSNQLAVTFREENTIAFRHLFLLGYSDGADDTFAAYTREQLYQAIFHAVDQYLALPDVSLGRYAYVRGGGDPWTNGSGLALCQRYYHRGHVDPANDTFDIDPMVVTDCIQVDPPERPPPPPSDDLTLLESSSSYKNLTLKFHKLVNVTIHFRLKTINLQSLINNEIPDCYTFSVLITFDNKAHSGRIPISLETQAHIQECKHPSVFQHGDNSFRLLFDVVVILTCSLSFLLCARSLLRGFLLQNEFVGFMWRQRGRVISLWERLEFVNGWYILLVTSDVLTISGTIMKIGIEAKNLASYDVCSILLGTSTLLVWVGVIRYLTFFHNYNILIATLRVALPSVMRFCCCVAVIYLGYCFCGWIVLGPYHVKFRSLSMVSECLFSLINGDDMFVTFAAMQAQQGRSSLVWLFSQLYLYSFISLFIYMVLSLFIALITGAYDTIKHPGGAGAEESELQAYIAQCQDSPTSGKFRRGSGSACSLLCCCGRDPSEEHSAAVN

Row | SMILES | EC50 (TRPML1) | EC50 (TRPML2) | EC50 (TRPML3) | EC50 (TRPML1; fluorescent calcium assay) | EC50 (TRPML2; fluorescent calcium assay) | EC50 (TRPML3; fluorescent calcium assay)
1 | Cc1cn(-c2cc(F)cc(F)c2)c2ncnc(N3C[C@@H](C)N(C(=O)OC(C)(C)C)C[C@@H]3C)c12 [Compound 670, tert-butyl (2R,5S)-4-(7-(3,5-difluorophenyl)-5-methyl-7H-pyrrolo[2,3-d]pyrimidin-4-yl)-2,5-dimethylpiperazine-1-carboxylate] | 0.1 to 0.5 µM | 0.5 to 2 µM | < 0.1 µM | – | – | –
2 | CC(C)(C)OC(=O)N1CCN(c2ncnc3c2c(-c2cccnc2)cn3-c2cccc(Cl)c2)CC1 [Compound 102, tert-butyl 4-(7-(3-chlorophenyl)-5-(pyridin-3-yl)-7H-pyrrolo [2,3-d]pyrimidin-4-yl)piperazine-1-carboxylate] | – | – | – | < 0.1 µM | 0.1 to 0.5 µM | < 0.1 µM
3 | Cc1cn(-c2ccccn2)c2ncnc(N3CCN(C(=O)OC(C)(C)C)C[C@@H]3C)c12 [Compound 690, tert-butyl (S)-3-methyl-4-(5-methyl-7-(pyridin-2-yl)-7H-pyrrolo[2,3-d]pyrimidin-4-yl)piperazine-1-carboxylate] | < 0.1 µM | 0.5 to 2 µM | < 0.1 µM | – | – | –
4 | C[C@@H]1CN(c2ncnc3c2c(C2CC2)cn3-c2cc(Cl)cc(Cl)c2)CCN1C(=O)OC(C)(C)C [Compound 111, tert-butyl (R)-4-(5-cyclopropyl-7-(3,5-dichlorophenyl)-7H-pyrrolo[2,3-d]pyrimidin-4-yl)-2-methylpiperazine-1-carboxylate] | – | – | – | < 0.1 µM | 0.1 to 0.5 µM | < 0.1 µM
5 | C[C@H]1CN(C(=O)OC(C)(C)C)CCN1c1ncnc2c1c(-c1cnn(C)c1)cn2-c1cccc(OC(F)(F)F)c1 [Compound 321, tert-butyl (S)-3-methyl-4-(5-(1-methyl-1H-pyrazol-4-yl)-7-(3-(trifluoromethoxy)phenyl)-7H-pyrrolo[2,3-d]pyrimidin-4-yl)piperazine-1-carboxylate] | – | – | – | 0.5 to 2 µM | > 2 µM | 0.5 to 2 µM
6 | CC(C)(C)OC(=O)N1CCN(c2ncnc3c2c(-c2ccccc2F)cn3-c2cc(C#N)ccn2)CC1(C)C [Compound 391] | – | – | – | < 0.1 µM | 0.1 to 0.5 µM | < 0.1 µM
7 | C[C@H]1CN(C(=O)OC(C)(C)C)CCN1c1ncnc2c1c(C1CC1)cn2-c1cc(C#N)cnn1 [Compound 439, tert-butyl (S)-4-(7-(5-cyanopyridazin-3-yl)-5-cyclopropyl-7H-pyrrolo[2,3-d]pyrimidin-4-yl)-3-methylpiperazine-1-carboxylate] | – | – | – | 0.1 to 0.5 µM | 0.5 to 2 µM | < 0.1 µM
8 | CCOC(=O)N1CCN(c2ncnc3c2c(-c2ccccn2)cn3-c2ccc(F)c(Cl)c2)[C@@H](C)C1 [Compound 155, ethyl (S)-4-(7-(3-chloro-4-fluorophenyl)-5-(pyridin-2-yl)-7H-pyrrolo[2,3-d]pyrimidin-4-yl)-3-methylpiperazine-1-carboxylate] | – | – | – | 0.1 to 0.5 µM | 0.5 to 2 µM | 0.1 to 0.5 µM
9 | [2H]C([2H])([2H])C(OC(=O)N1C[C@H](C)N(c2ncnc3c2c(C(F)(F)F)cn3-c2cc(C#N)ccn2)C[C@@H]1C)(C([2H])([2H])[2H])C([2H])([2H])[2H] [Compound 603, 2-(methyl-d3)propan-2-yl-1,1,1,3,3,3-d6 (2S,5S)-4-(7-(4-cyanopyridin-2-yl)-5-(trifluoromethyl)-7H-pyrrolo[2,3-d]pyrimidin-4-yl)-2,5-dimethylpiperazine-1-carboxylate] | < 0.1 µM | 0.5 to 2 µM | < 0.1 µM | – | – | –
10 | C[C@H]1CN(C(=O)OC(C)(C)C)CCN1c1ncnc2c1c(-c1cccnc1)cn2-c1cc(F)cc(F)c1 [Compound 213, tert-butyl-(S)-4-(7-(3,5-difluorophenyl)-5-(pyridin-3-yl)-7H-pyrrolo[2,3-d]pyrimidin-4-yl)-3-methylpiperazine-1-carboxylate] | – | – | – | 0.1 to 0.5 µM | 0.5 to 2 µM | 0.1 to 0.5 µM
11 | CC(C)(C)OC(=O)N1CCN(c2nccc3c2c(C2CC2)cn3-c2ccc(Cl)cc2)CC1 [Compound 156, tert-butyl 4-(1-(4-chlorophenyl)-3-cyclopropyl-1H-pyrrolo[3,2-c]pyridin-4-yl)piperazine-1-carboxylate] | – | – | – | 0.1 to 0.5 µM | 0.1 to 0.5 µM | < 0.1 µM
12 | CCN(CC)c1cn(-c2cc(C#N)ccn2)c2ncnc(N3CCN(C(=O)OC(C)(C)C)CC3)c12 [Compound 441, tert-butyl 4-(7-(4-cyanopyridin-2-yl)-5-(diethylamino)-7H-pyrrolo[2,3-d]pyrimidin-4-yl)piperazine-1-carboxylate] | – | – | – | 0.1 to 0.5 µM | > 2 µM | 0.1 to 0.5 µM
13 | C[C@H]1CN(C(=O)OC(C)(C)C)CCN1c1ncnc2c1c(C1CC1)cn2-c1ccc(F)c(F)c1 [Compound 219, tert-butyl (S)-4-(5-cyclopropyl-7-(3,4-difluorophenyl)-7H-pyrrolo[2,3-d]pyrimidin-4-yl)-3-methylpiperazine-1-carboxylate] | – | – | – | < 0.1 µM | 0.1 to 0.5 µM | < 0.1 µM
14 | C[C@@H]1CN(c2ncnc3c2c(-c2ccccc2F)cn3-c2cnn(C)c2)[C@@H](C)CN1C(=O)OC(C)(C)C(F)(F)F [Compound 186, 1,1,1-trifluoro-2-methylpropan-2-yl (2R,5S)-4-(5-(2-fluorophenyl)-7-(1-methyl-1H-pyrazol-4-yl)-7H-pyrrolo[2,3-d]pyrimidin-4-yl)-2,5-dimethylpiperazine-1-carboxylate] | – | – | – | < 0.1 µM | 0.1 to 0.5 µM | < 0.1 µM
15 | Cc1cn(-c2cc(C#N)ccn2)c2ncnc(N3CCN(C(=O)OC(C)(C)C)[C@H](C)C3)c12 [Compound 680, tert-butyl (R)-4-(7-(4-cyanopyridin-2-yl)-5-methyl-7H-pyrrolo[2,3-d]pyrimidin-4-yl)-2-methylpiperazine-1-carboxylate] | < 0.1 µM | < 0.1 µM | < 0.1 µM | – | – | –
16 | CC(C)(C)OC(=O)N1CCN(c2ncnc3c2c(-c2ccccc2F)cn3-c2ncc(C#N)s2)CC1 [Compound 455, tert-butyl 4-(7-(5-cyanothiazol-2-yl)-5-(2-fluorophenyl)-7H-pyrrolo[2,3-d]pyrimidin-4-yl)piperazine-1-carboxylate] | – | – | – | < 0.1 µM | 0.1 to 0.5 µM | < 0.1 µM
17 | CC(C)(C)OC(=O)N1CCN(c2nccc3c2c(-c2ccccc2F)cn3-c2cncnc2)CC1 [Compound 171, tert-butyl 4-(3-(2-fluorophenyl)-1-(pyrimidin-5-yl)-1H-pyrrolo[3,2-c]pyridin-4-yl)piperazine-1-carboxylate] | – | – | – | 0.5 to 2 µM | > 2 µM | > 2 µM
18 | CC(C)(C)OC(=O)N1CCN(c2ncnc3c2c(C2CC2)cn3-c2cc(C#N)ccn2)[C@H]2C[C@H]21 (single isomer, unassigned) [Compound 409] | – | – | – | < 0.1 µM | 0.1 to 0.5 µM | < 0.1 µM
19 | C[C@H]1CN(C(=O)OC(C)(C)C)CCN1c1ncnc2c1c(C1CC1)cn2-c1cc(C#N)ncn1 [Compound 431, tert-butyl (S)-4-(7-(6-cyanopyrimidin-4-yl)-5-cyclopropyl-7H-pyrrolo[2,3-d]pyrimidin-4-yl)-3-methylpiperazine-1-carboxylate] | – | – | – | 0.1 to 0.5 µM | 0.5 to 2 µM | < 0.1 µM
20 | C[C@@H]1CN(c2ncnc3c2c(OC(F)F)cn3-c2cc(Cl)ccn2)[C@@H](C)CN1C(=O)OC(C)(C)C [Compound 521, tert-butyl (2R,5S)-4-(7-(4-chloropyridin-2-yl)-5-(difluoromethoxy)-7H-pyrrolo[2,3-d]pyrimidin-4-yl)-2,5-dimethylpiperazine-1-carboxylate] | < 0.1 µM | 0.5 to 2 µM | < 0.1 µM | – | – | –
21 | C[C@H]1CN(C(=O)OCC(F)(F)F)CCN1c1ncnc2c1c(-c1ccccc1)cn2-c1cc(C#N)ccn1 [Compound 371, 2,2,2-trifluoroethyl (S)-4-(7-(4-cyanopyridin-2-yl)-5-phenyl-7H-pyrrolo[2,3-d]pyrimidin-4-yl)-3-methylpiperazine-1-carboxylate] | – | – | – | < 0.1 µM | 0.5 to 2 µM | < 0.1 µM
